In the experiment the target is T1, cnCka1 (Cryptococcus neoformans CK2α orthologue, Cka1) (Cryptococcus neoformans, UniProt J9VNH4).
T1 construct: gene CNAG_05694; full-length, Met1–Pro338 (His6-TRX fusion in SPR; tag removed for crystal)
Description: SPR (Biacore […]) and crystal structure at […] Å; also ADP-Glo kinase assay. The experiment is classed as binding.

Molecules are shown by their SMILES.

T1 sequence (J9VNH4 entry or part of it): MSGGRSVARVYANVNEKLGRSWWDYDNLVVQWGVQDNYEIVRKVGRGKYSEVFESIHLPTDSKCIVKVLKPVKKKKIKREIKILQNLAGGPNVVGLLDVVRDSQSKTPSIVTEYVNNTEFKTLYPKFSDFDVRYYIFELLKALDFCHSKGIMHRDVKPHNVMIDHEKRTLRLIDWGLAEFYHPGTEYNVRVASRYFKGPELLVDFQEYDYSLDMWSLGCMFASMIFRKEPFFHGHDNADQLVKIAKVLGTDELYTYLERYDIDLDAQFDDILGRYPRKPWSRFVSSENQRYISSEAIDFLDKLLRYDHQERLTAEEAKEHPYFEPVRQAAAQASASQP

For orientation: Kd means the constant that tells how readily two partners part at equilibrium. Lower therefore signals tighter binding. `O=C(O)c1ccc2c(c1)nc(Nc1cccc(Cl)c1)c1ccncc12` [CX-4945, 5-(3-chlorophenylamino)benzo[c][2,6]naphthyridine-8-carboxylic acid]: the Kd amounted to 60.1 nM.

Source of the values: article PMC6779870, “Structural analysis of fungal pathogenicity-related casein kinase α subunit, Cka1, in the human fungal pathogen Cryptococcus neoformans” (Scientific Reports, 2019).
